# How the values were obtained:
# Assay type in all cases: in vivo, human
# [1] = Study 202 post-hoc APRI and FIB-4 fibrosis index scores
# Experimental: APRI and FIB-4 scores were calculated. Change in score category from baseline (BL) to Weeks 24 and 48 was assessed in patients with non-missing data. Correlations between changes from BL in APRI and FIB-4 scores, and MCP-1 (CCR2 ligand) and sCD14 (inflammatory biomarker) levels were evaluated.
# [2] = Study 202 biomarkers of inflammation
# Experimental: As an exploratory analysis, levels of inflammation biomarkers MCP-1, sCD14, high sensitivity C-reactive protein [hs-CRP], interleukin-6 [IL-6], D-dimer, and fibrinogen) were measured. Baseline values and changes from baseline at Week 24 and Week 48 of MCP-1, sCD14, hs-CRP, IL-6, D-dimer, and fibrinogen are summarized in Table 25.
# The sCD14 samples were originally analyzed in 2 separate batches: Batch 1 included samples leading up to the Week 24 primary analysis and Batch 2 included Week 32 and Week 48 (end of study) samples. A repeat analysis of archived samples all analyzed in one batch was conducted for consistency in analysis across time points. To control for the effects of covariates, a linear mixed-model repeated-measures analysis was conducted on the changes from baseline in sCD14 (analysis dated September 2013).
# [3] = Study 202 fasting metabolic laboratory parameters
# Excerpt: All abnormalities in total cholesterol, LDL cholesterol, triglycerides, or glucose were Grade 1 or Grade 2.
# Mean baseline values and changes from baseline in HbA1c, HOMA-IR, fasting LDL, fasting HDL, fasting total cholesterol, fasting total cholesterol/HDL ratio, and fasting triglycerides are shown in Table 36.
# [4] = All CVC (N = 115), EFV (N = 28), through Week 48
# [5] = CVC 100 mg (N = 58), through Week 48
structure (smiles),measurement,setting,value
"CCCCOCCOc1ccc(-c2ccc3c(c2)/C=C(/C(=O)Nc2ccc([S@@+]([O-])Cc4cncn4CCC)cc2)CCCN3CC(C)C)cc1 [CVC, (S)-8-[4-(2-Butoxyethoxy)phenyl]-1-isobutyl-N-(4-{[(1-propyl-1H-imidazol-5-yl)methyl]sulfinyl}phenyl)-1,2,3,4-tetrahydro-1-benzazocine-5-carboxamide]","APRI 0.5-1.5, patients",[1]; Baseline,14%
same,"APRI <0.5, patients",[1]; Baseline,84%
same,"APRI >1.5, patients",[1]; Baseline,2%
same,"FIB-4 1.45-3.25, patients",[1]; Baseline,17%
same,"FIB-4 <1.45, patients",[1]; Baseline,82%
same,"FIB-4 >3.25, patients",[1]; Baseline,1%
same,"APRI 0.5-1.5, patients",[1]; Week 24,7%
same,"APRI <0.5, patients",[1]; Week 24,93%
same,"APRI decreased 1 category from baseline, patients",[1]; Week 24,14%
same,"FIB-4 1.45-3.25, patients",[1]; Week 24,7%
same,"FIB-4 <1.45, patients",[1]; Week 24,93%
same,"FIB-4 decreased 1 category from baseline, patients",[1]; Week 24,13%
same,"APRI 0.5-1.5, patients",[1]; Week 48,8%
same,"APRI <0.5, patients",[1]; Week 48,91%
same,"APRI >1.5, patients",[1]; Week 48,1%
same,"APRI decreased 1 category from baseline, patients",[1]; Week 48,10%
same,"FIB-4 1.45-3.25, patients",[1]; Week 48,5%
same,"FIB-4 <1.45, patients",[1]; Week 48,94%
same,"FIB-4 >3.25, patients",[1]; Week 48,1%
same,"FIB-4 decreased 1 category from baseline, patients",[1]; Week 48,14%
same,subjects with improvements in APRI and FIB-4 scores over time,[1]; pooled CVC 100 mg and 200 mg,≥ 10%
same,"sCD14 Baseline value, Mean",[2]; CVC 100 mg,1.8e+06 pg/mL
same,"sCD14 change from baseline at Week 12, Mean",[2]; CVC 100 mg,-140000 pg/mL
same,"sCD14 change from baseline at Week 12, Median",[2]; CVC 100 mg,-160000 pg/mL
same,"sCD14 change from baseline at Week 24, Mean",[2]; CVC 100 mg,-190000 pg/mL
same,"sCD14 change from baseline at Week 24, Median",[2]; CVC 100 mg,-180000 pg/mL
same,"sCD14 change from baseline at Week 32, Mean",[2]; CVC 100 mg,110000 pg/mL
same,"sCD14 change from baseline at Week 32, Median",[2]; CVC 100 mg,120000 pg/mL
same,"sCD14 change from baseline at Week 48, Mean",[2]; CVC 100 mg,100000 pg/mL
same,"sCD14 change from baseline at Week 48, Median",[2]; CVC 100 mg,100000 pg/mL
same,"sCD14 change from baseline at Week 12, Mean",[2]; CVC 200 mg,-230000 pg/mL
same,"sCD14 change from baseline at Week 12, Median",[2]; CVC 200 mg,-210000 pg/mL
same,"sCD14 change from baseline at Week 24, Mean",[2]; CVC 200 mg,-230000 pg/mL
same,"sCD14 change from baseline at Week 24, Median",[2]; CVC 200 mg,-190000 pg/mL
same,"sCD14 change from baseline at Week 32, Mean",[2]; CVC 200 mg,-20000 pg/mL
same,"sCD14 change from baseline at Week 32, Median",[2]; CVC 200 mg,-20000 pg/mL
same,"sCD14 change from baseline at Week 48, Mean",[2]; CVC 200 mg,-40000 pg/mL
same,"sCD14 change from baseline at Week 48, Median",[2]; CVC 200 mg,-40000 pg/mL
same,plasma MCP-1 over time,"[2]; Study 202, up to Week 48",increases over time
same,"Any fasting laboratory abnormality, worst Grade 1",[3]; [4],9 (8%) n (%)
same,"Any fasting laboratory abnormality, worst Grade 2",[3]; [4],7 (6%) n (%)
same,"Any fasting laboratory abnormality, worst Grade 3",[3]; [4],0 n (%)
same,"Any fasting laboratory abnormality, worst Grade 4",[3]; [4],0 n (%)
same,Any graded (Grade 1-4) fasting laboratory abnormality,[3]; [4],16 (14%) n (%)
same,"Fasting LDL cholesterol abnormality, Grade 1",[3]; [4],3 (3%) n (%)
same,"Fasting LDL cholesterol abnormality, Grade 2",[3]; [4],3 (3%) n (%)
same,"Fasting LDL cholesterol abnormality, Grade 3",[3]; [4],0 n (%)
same,"Fasting LDL cholesterol abnormality, Grade 4",[3]; [4],0 n (%)
same,"Fasting LDL cholesterol abnormality, any grade",[3]; [4],6 (5%) n (%)
same,"Fasting glucose (serum, high) abnormality, Grade 1",[3]; [4],3 (3%) n (%)
same,"Fasting glucose (serum, high) abnormality, Grade 2",[3]; [4],2 (2%) n (%)
same,"Fasting glucose (serum, high) abnormality, Grade 3",[3]; [4],0 n (%)
same,"Fasting glucose (serum, high) abnormality, Grade 4",[3]; [4],0 n (%)
same,"Fasting glucose (serum, high) abnormality, any grade",[3]; [4],5 (4%) n (%)
same,"Fasting total cholesterol abnormality, Grade 1",[3]; [4],5 (4%) n (%)
same,"Fasting total cholesterol abnormality, Grade 2",[3]; [4],3 (3%) n (%)
same,"Fasting total cholesterol abnormality, Grade 3",[3]; [4],0 n (%)
same,"Fasting total cholesterol abnormality, Grade 4",[3]; [4],0 n (%)
same,"Fasting total cholesterol abnormality, any grade",[3]; [4],8 (7%) n (%)
same,"Fasting triglycerides abnormality, Grade 1",[3]; [4],0 n (%)
same,"Fasting triglycerides abnormality, Grade 2",[3]; [4],1 (<1%) n (%)
same,"Fasting triglycerides abnormality, Grade 3",[3]; [4],0 n (%)
same,"Fasting triglycerides abnormality, Grade 4",[3]; [4],0 n (%)
same,"Fasting triglycerides abnormality, any grade",[3]; [4],1 (<1%) n (%)
same,"Fasting triglycerides, mean change from baseline","[3]; All CVC, EFV, Week 4",-5 mg/dL
same,"HOMA-IR, mean change from baseline","[3]; All CVC, EFV, Week 4",−0.30
same,"HbA1c, mean change from baseline","[3]; All CVC, EFV, Week 4",−0.03 % Hb
same,"HbA1c, mean change from baseline","[3]; All CVC, EFV, Week 12",−0.06 % Hb
same,"HbA1c, mean change from baseline","[3]; All CVC, EFV, Week 24",0.06 % Hb
same,"HbA1c, mean change from baseline","[3]; All CVC, EFV, Week 48",0.10 % Hb
same,"Any fasting laboratory abnormality, worst Grade 1",[3]; [5],3 (5%) n (%)
same,"Any fasting laboratory abnormality, worst Grade 2",[3]; [5],1 (2%) n (%)
same,"Any fasting laboratory abnormality, worst Grade 3",[3]; [5],0 n (%)
same,"Any fasting laboratory abnormality, worst Grade 4",[3]; [5],0 n (%)
same,Any graded (Grade 1-4) fasting laboratory abnormality,[3]; [5],4 (7%) n (%)
same,"Fasting LDL cholesterol abnormality, Grade 1",[3]; [5],1 (2%) n (%)
same,"Fasting LDL cholesterol abnormality, Grade 2",[3]; [5],1 (2%) n (%)
same,"Fasting LDL cholesterol abnormality, Grade 3",[3]; [5],0 n (%)
same,"Fasting LDL cholesterol abnormality, Grade 4",[3]; [5],0 n (%)
same,"Fasting LDL cholesterol abnormality, any grade",[3]; [5],2 (3%) n (%)
same,"Fasting glucose (serum, high) abnormality, Grade 1",[3]; [5],0 n (%)
same,"Fasting glucose (serum, high) abnormality, Grade 2",[3]; [5],0 n (%)
same,"Fasting glucose (serum, high) abnormality, Grade 3",[3]; [5],0 n (%)
same,"Fasting glucose (serum, high) abnormality, Grade 4",[3]; [5],0 n (%)
same,"Fasting glucose (serum, high) abnormality, any grade",[3]; [5],0 n (%)
same,"Fasting total cholesterol abnormality, Grade 1",[3]; [5],3 (5%) n (%)
same,"Fasting total cholesterol abnormality, Grade 2",[3]; [5],0 n (%)
same,"Fasting total cholesterol abnormality, Grade 3",[3]; [5],0 n (%)
same,"Fasting total cholesterol abnormality, Grade 4",[3]; [5],0 n (%)
